Experimental data as given in ChEMBL document CHEMBL1129083, “The synthesis of 5-azido-UTP and UDP-pyridoxal and their effect on the carbamoyl-phosphate synthetase (CPS II) in the mammalian multienzyme polypeptide CAD” (Bioorg Med Chem Lett, 1996).

How the values were obtained:
[1] = molecular target: Multifunctional protein CAD (Homo sapiens) (UniProt P27708); assay: Compound was evaluated for its effect on the activity of mammalian Carbamoyl-phosphate synthetase in the multienzyme polypeptide CAD at a concentration of 1.6mM
[2] = molecular target: Multifunctional protein CAD (Homo sapiens) (UniProt P27708); assay: Compound was evaluated for its effect on the activity of mammalian Carbamoyl-phosphate synthetase in the multienzyme polypeptide CAD at a concentration of 0.4mM
[3] = molecular target: Multifunctional protein CAD (Homo sapiens) (UniProt P27708); assay: Compound was evaluated for its effect on the activity of mammalian Carbamoyl-phosphate synthetase in the multienzyme polypeptide CAD at a concentration of 1.2 mM
[4] = molecular target: Multifunctional protein CAD (Homo sapiens) (UniProt P27708); assay: Compound was evaluated for its effect on the activity of mammalian Carbamoyl-phosphate synthetase in the multienzyme polypeptide CAD at a concentration of 1.2mM
[5] = molecular target: Multifunctional protein CAD (Homo sapiens) (UniProt P27708); assay: Compound was evaluated for its effect on the activity of mammalian Carbamoyl-phosphate synthetase in the multienzyme polypeptide CAD at a concentration of 4mM

Multifunctional protein CAD (Homo sapiens), sequence (P27708 whole entry): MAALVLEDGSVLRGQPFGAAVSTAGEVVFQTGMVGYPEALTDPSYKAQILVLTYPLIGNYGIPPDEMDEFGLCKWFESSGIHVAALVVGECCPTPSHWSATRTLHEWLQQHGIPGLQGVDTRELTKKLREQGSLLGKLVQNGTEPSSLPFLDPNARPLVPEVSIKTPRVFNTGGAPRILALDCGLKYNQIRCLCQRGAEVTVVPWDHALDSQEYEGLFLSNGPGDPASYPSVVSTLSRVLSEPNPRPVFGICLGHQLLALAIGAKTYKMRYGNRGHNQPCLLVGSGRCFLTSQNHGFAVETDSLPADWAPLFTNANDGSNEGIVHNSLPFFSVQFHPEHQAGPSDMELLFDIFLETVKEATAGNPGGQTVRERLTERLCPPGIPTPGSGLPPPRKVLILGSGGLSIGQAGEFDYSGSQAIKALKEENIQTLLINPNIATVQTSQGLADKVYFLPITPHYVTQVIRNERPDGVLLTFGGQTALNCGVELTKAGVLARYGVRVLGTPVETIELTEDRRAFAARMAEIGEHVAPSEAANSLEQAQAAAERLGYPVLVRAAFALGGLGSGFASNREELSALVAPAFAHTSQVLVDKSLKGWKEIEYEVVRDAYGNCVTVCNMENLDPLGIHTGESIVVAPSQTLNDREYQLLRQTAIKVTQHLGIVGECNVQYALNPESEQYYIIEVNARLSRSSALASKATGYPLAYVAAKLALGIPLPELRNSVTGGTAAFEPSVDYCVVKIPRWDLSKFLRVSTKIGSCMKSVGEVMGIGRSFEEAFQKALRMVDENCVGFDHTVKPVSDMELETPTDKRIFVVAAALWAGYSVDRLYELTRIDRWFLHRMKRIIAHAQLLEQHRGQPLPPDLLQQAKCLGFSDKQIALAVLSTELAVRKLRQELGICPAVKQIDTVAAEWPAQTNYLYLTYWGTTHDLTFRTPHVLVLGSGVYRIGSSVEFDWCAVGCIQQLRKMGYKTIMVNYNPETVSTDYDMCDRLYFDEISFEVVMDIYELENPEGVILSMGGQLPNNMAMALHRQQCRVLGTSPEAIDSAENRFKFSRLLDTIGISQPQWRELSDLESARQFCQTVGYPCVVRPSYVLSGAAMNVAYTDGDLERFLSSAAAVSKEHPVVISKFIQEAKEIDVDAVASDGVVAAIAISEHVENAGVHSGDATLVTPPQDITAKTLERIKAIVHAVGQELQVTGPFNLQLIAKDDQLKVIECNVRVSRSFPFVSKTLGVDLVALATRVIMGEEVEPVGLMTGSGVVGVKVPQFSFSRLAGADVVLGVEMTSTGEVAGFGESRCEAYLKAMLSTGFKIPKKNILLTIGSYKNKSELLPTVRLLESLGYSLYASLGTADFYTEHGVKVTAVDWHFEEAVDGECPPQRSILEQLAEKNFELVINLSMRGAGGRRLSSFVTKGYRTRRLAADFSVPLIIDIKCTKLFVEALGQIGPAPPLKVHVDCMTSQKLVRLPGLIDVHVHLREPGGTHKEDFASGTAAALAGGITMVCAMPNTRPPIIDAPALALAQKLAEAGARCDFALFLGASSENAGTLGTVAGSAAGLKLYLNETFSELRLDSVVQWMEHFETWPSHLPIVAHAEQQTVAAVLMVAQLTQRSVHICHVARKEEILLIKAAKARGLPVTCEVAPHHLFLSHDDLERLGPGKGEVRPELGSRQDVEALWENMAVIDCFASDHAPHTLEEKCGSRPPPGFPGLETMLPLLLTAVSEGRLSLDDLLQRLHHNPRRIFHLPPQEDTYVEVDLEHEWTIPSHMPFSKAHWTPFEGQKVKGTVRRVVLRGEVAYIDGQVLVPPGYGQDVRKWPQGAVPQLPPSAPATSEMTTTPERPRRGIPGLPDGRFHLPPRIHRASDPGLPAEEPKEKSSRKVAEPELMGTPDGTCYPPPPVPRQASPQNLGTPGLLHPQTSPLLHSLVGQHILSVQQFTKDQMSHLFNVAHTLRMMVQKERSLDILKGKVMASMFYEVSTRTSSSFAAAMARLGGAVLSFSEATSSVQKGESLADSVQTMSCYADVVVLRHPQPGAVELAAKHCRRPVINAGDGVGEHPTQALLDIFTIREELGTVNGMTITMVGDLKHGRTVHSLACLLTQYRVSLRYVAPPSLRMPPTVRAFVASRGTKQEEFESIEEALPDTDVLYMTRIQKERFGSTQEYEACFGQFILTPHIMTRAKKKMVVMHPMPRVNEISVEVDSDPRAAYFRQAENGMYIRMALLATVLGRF

O=P(O)(O)OC[C@H]1O[C@H](O)C(O)C1O (single isomer, unassigned) gave an Activity [1] of 100%.
For Cc1ncc(COP(=O)(O)O)c(C=O)c1O, the Activity [2] was 170%.
With O=P(O)(O)OC[C@H]1OC(OP(=O)(O)OP(=O)(O)O)[C@H](O)[C@@H]1O (stereo not given in full) the Activity [2] was 320%.
[N-]=[N+]=Nc1cn([C@@H]2O[C@H](COP(=O)(O)OP(=O)(O)OP(=O)(O)O)[C@@H](O)[C@H]2O)c(=O)[nH]c1=O was tested, and the Activity [3] was 48%.
Work on Cc1ncc(CO)c(C=O)c1O yielded an Activity [4] of 73%.
For O=c1ccn([C@@H]2O[C@H](COP(=O)(O)OP(=O)(O)OP(=O)(O)O)[C@@H](O)[C@H]2O)c(=O)[nH]1, the Activity [4] was 18%.
Cc1ncc(COP(=O)(O)OP(=O)(O)OC[C@H]2OC(n3ccc(=O)[nH]c3=O)[C@H](O)[C@@H]2O)c(C=O)c1O (stereo not given in full) was tested, and the Activity [2] was 120%.
O=c1ccn([C@@H]2O[C@H](COP(=O)(O)OP(=O)(O)O)[C@@H](O)[C@H]2O)c(=O)[nH]1 gave an Activity [4] of 54%.
O=c1ccn([C@@H]2O[C@H](CO)C(O)C2O)c(=O)[nH]1 (single isomer, unassigned) gave an Activity [1] of 100%.
In the case of Nc1ncnc2c1ncn2[C@@H]1O[C@H](COP(=O)(O)OP(=O)(O)OP(=O)(O)O)[C@@H](O)[C@H]1O, the Activity [5] is reported as 100%.
